Assay results as given in PubChem BioAssay AID2060506 (Molecular Pharmacology Branch, DTP, NCI, 2025).

Tested on: 598228-144-R-J1-PDC complex spheroid viability
Assay: Anticancer human tumor 598228-144-R-J1-PDC patient-derived serous endometrial adenocarcinoma cell line growth inhibition [GQUAD]
Details: for IC50: curve of first compound; for viability, T/C: stronger effect = lower value
Excerpt: DNA G-quadruplex Stabilizer Agents in Combinations in Complex Spheroids
A high-throughput screen of multi-cell type tumor spheroids was designed to identify active combinations of DNA G-quadruplex stabilizer agents and targeted small molecules. Complex spheroids include a stromal component modeled by human endothelial cells (HUVEC) and fibroblasts modeled by human mesenchymal stem cells (MSCs). The concentration ranges selected for each drug and investigational agent were based upon clinically achievable concentrations if the clinical Cmax of the agent was known.
Compounds. The drugs and investigational agents: pidnarulex (CX-5461; NSC782164), APTO-253 (NSC789042), BRACO-19 (NSC847499), peposertib (NSC802822), ceralasertib (NSC780249), elimusertib (NSC800525), camonsertib (NSC841442), AZD-1390 (NSC803789), olaparib (NSC753686), talazoparib (NSC767125), ART-558 (NSC835418), sotorasib (NSC818433), MRTX-1133 (NSC836407), SN-38 (NSC673596), topotecan (NSC609699), etoposide (NSC141540), doxorubicin (NSC123127), gemcitabine (NSC613327), 5-fluorouracil (NSC19893), paclitaxel (NSC125973), vemurafenib (NSC761431), panobinostat (NSC761190), R-306465 (JNJ-16241199; NSC773264), adavosertib (NSC754352), TP-3654 (NSC805149), carboplatin (NSC241240), KSQ-4279 (NSC840948), and staurosporine (NSC755774) were obtained from the National Cancer Institute (NCI) Developmental Therapeutics Program Chemical Repository (34). The FDA-approved anticancer drug set is available from the NCI Developmental Therapeutics Program. […] The stock solutions were prepared in dimethyl sulfoxide (DMSO, Sigma-Aldrich, St. Louis, MO, cat. D2650) at 800-fold the tested concentration and stored at -70 degrees C prior to their use. All drugs and investigational agents were tested over a range starting from a high concentration at or near the clinical Cmax and decreasing in half-log increments. If the clinical Cmax for an agent had not been determined, the highest concentration tested was 10 microM.
2.3 Cell Culture. All cells were maintained in an incubator at 37 degrees C and 5% CO2 with 95% humidity. The PDC lines were cultured according to standard operating procedures established by the NCI PDMR. All PDCs were thawed and cultured in Matrigel-coated flasks prepared with a working solution of 1X Ham's F-12 nutrient mix, without supplementation (Invitrogen, cat. 11765054), 100 U/mL penicillin-streptomycin (Invitrogen, cat. 15140122), and 2.5% Matrigel (Corning Inc., cat. 354248) for the first three passages. The 857933-349-R-J2-PDC line was cultured in 6C/Colon 1B media, which includes advanced DMEM/F-12 (Thermo Fisher Scientific, cat. 12634028), 10 mM HEPES (Thermo Fisher Scientific, cat. 15630080), 1X GlutaMAX supplement (Thermo Fisher Scientific, cat. 35050061), 0.1 mg/mL primocin (InvivoGen, cat. ant-pm-2), 10% defined fetal bovine serum, heat inactivated (HyClone Laboratories Inc., cat. SH30070.03HI), 50% L-WRN conditioned media (ATCC, cat. CRL-3276), 1.25 mM N-Acetyl-L-cysteine (Sigma-Aldrich, cat. A9165), 10 mM nicotinamide (Sigma-Aldrich, cat. N0636), 1X B-27 supplement (Thermo Fisher Scientific, cat. 17504044), 1X N-2 supplement (Thermo Fisher Scientific, cat. 17502048), 10 microM Y-27632 dihydrochloride (Tocris Bioscience, cat. 1254), and 50 ng/mL human EGF recombinant protein (Thermo Fisher Scientific, cat. PHG0311). The 485176-168-R4-J1-PDC line was cultured in Panc media, which includes all 6C/Colon 1B media components plus 100 ng/mL human FGF-10 (Thermo Fisher Scientific, cat. 100-26), 500 nM SB-431542 (Selleckchem, cat. S1067), and gastrin (Tocris, cat. 3006).
[…]

[1] = second compound 0.0316 µM, first compound 0.0316 µM
[2] = second compound 0.0316 µM, first compound 0.1 µM
[3] = second compound 0.0316 µM, first compound 0.316 µM
[4] = second compound 0.0316 µM, first compound 1 µM
[5] = second compound 0.0316 µM, first compound 3.16 µM
[6] = second compound 0.0316 µM, first compound 10 µM
[7] = second compound 0.1 µM, first compound 0.0316 µM
[8] = second compound 0.1 µM, first compound 0.1 µM
[9] = second compound 0.1 µM, first compound 0.316 µM
[10] = second compound 0.1 µM, first compound 1 µM
[11] = second compound 0.1 µM, first compound 3.16 µM
[12] = second compound 0.1 µM, first compound 10 µM
[13] = second compound 0.316 µM, first compound 0.0316 µM
[14] = second compound 0.316 µM, first compound 0.1 µM
[15] = second compound 0.316 µM, first compound 0.316 µM
[16] = second compound 0.316 µM, first compound 1 µM
[17] = second compound 0.316 µM, first compound 3.16 µM
[18] = second compound 0.316 µM, first compound 10 µM
[19] = second compound 1 µM, first compound 0.0316 µM
[20] = second compound 1 µM, first compound 0.1 µM
[21] = second compound 1 µM, first compound 0.316 µM
[22] = second compound 1 µM, first compound 1 µM
[23] = second compound 1 µM, first compound 3.16 µM
[24] = second compound 1 µM, first compound 10 µM
[25] = second compound 3.16 µM, first compound 0.0316 µM
[26] = second compound 3.16 µM, first compound 0.1 µM
[27] = second compound 3.16 µM, first compound 0.316 µM
[28] = second compound 3.16 µM, first compound 1 µM
[29] = second compound 3.16 µM, first compound 3.16 µM
[30] = second compound 3.16 µM, first compound 10 µM
[31] = second compound 10 µM, first compound 0.0316 µM
[32] = second compound 10 µM, first compound 0.1 µM
[33] = second compound 10 µM, first compound 0.316 µM
[34] = second compound 10 µM, first compound 1 µM
[35] = second compound 10 µM, first compound 3.16 µM
[36] = second compound 10 µM, first compound 10 µM
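Also: spheroids exposed to the agents for one week before reading.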
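For viability, T/C in this document: percent of vehicle DMSO control viability so 100% = untreated growth.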

For `C=CC(=O)N1CCN(c2nc(=O)n(-c3c(C)ccnc3C(C)C)c3nc(-c4c(O)cccc4F)c(F)cc23)C(C)C1` (centres undefined) + CN(C)c1ccc(Nc2c3ccc(NC(=O)CCN4CCCC4)cc3nc3cc(NC(=O)CCN4CCCC4)ccc23)cc1, the IC50 (second compound 0.0316 µM) was greater than 10 µM, the IC50 (second compound 0.1 µM) was greater than 10 µM and the IC50 (second compound 0.316 µM) was greater than 10 µM. For the same compound, the IC50 (second compound 1 µM) was greater than 10 µM, the IC50 (second compound 3.16 µM) was greater than 10 µM and the IC50 (second compound 10 µM) was greater than 10 µM. For the same compound, the viability, T/C [1] was 94.4%, the viability, T/C [2] was 105% and the viability, T/C [3] was 101%. It also gave a viability, T/C [4] of 120%, a viability, T/C [5] of 122% and a viability, T/C [6] of 122%. For the same compound, the viability, T/C [7] was 93.6%, the viability, T/C [8] was 103% and the viability, T/C [9] was 122%. For the same compound, the viability, T/C [10] was 122%, the viability, T/C [11] was 119% and the viability, T/C [12] was 109%. It also gave a viability, T/C [13] of 97.8%, a viability, T/C [14] of 112% and a viability, T/C [15] of 105%. For the same compound, the viability, T/C [16] was 123%, the viability, T/C [17] was 140% and the viability, T/C [18] was 110%. For the same compound, the viability, T/C [19] was 80.8%, the viability, T/C [20] was 105% and the viability, T/C [21] was 103%. For the same compound, the viability, T/C [22] was 121%, the viability, T/C [23] was 135% and the viability, T/C [24] was 93.8%. For the same compound, the viability, T/C [25] was 93.5%, the viability, T/C [26] was 111% and the viability, T/C [27] was 114%. For the same compound, the viability, T/C [28] was 117%, the viability, T/C [29] was 132% and the viability, T/C [30] was 121%. The viability, T/C [31] was 79.6%, the viability, T/C [32] was 85.5% and the viability, T/C [33] was 115%. For the same compound, the viability, T/C [34] was 115%, the viability, T/C [35] was 124% and the viability, T/C [36] was 73%.

With `Cc1cccc(N(C)C(=O)C2C(O)CCN2c2nc(C)cc(C(F)(F)F)c2C#N)c1` (centres undefined) + CN(C)c1ccc(Nc2c3ccc(NC(=O)CCN4CCCC4)cc3nc3cc(NC(=O)CCN4CCCC4)ccc23)cc1 the IC50 (second compound 0.0316 µM) was greater than 10 µM, the IC50 (second compound 0.1 µM) was greater than 10 µM and the IC50 (second compound 0.316 µM) was greater than 10 µM. For the same compound, the IC50 (second compound 1 µM) was greater than 10 µM, the IC50 (second compound 3.16 µM) was greater than 10 µM and the IC50 (second compound 10 µM) was 3.95 µM. For the same compound, the viability, T/C [1] was 114%, the viability, T/C [2] was 96.9% and the viability, T/C [3] was 98.3%. It also gave a viability, T/C [4] of 105%, a viability, T/C [5] of 91.5% and a viability, T/C [6] of 103%. For the same compound, the viability, T/C [7] was 103%, the viability, T/C [8] was 107% and the viability, T/C [9] was 107%. For the same compound, the viability, T/C [10] was 108%, the viability, T/C [11] was 103% and the viability, T/C [12] was 84.9%. It also gave a viability, T/C [13] of 94%, a viability, T/C [14] of 124% and a viability, T/C [15] of 100%. It also gave a viability, T/C [16] of 125%, a viability, T/C [17] of 118% and a viability, T/C [18] of 113%. It also gave a viability, T/C [19] of 98.5%, a viability, T/C [20] of 114% and a viability, T/C [21] of 106%. It also gave a viability, T/C [22] of 101%, a viability, T/C [23] of 106% and a viability, T/C [24] of 111%. For the same compound, the viability, T/C [25] was 114%, the viability, T/C [26] was 106% and the viability, T/C [27] was 106%. For the same compound, the viability, T/C [28] was 95.2%, the viability, T/C [29] was 108% and the viability, T/C [30] was 86.4%. For the same compound, the viability, T/C [31] was 96.6%, the viability, T/C [32] was 78.7% and the viability, T/C [33] was 107%. It also gave a viability, T/C [34] of 86.5%, a viability, T/C [35] of 55.2% and a viability, T/C [36] of 29.1%.
